In the test the test system is production of CD69 by B lymphocytes in human whole blood. In words: CD69 Whole Blood Assay (CD69 Hu Blood FACS). The following applies: human whole blood activated with goat F(ab')2 anti-human IgM, 20 hours, CD69 on CD20 positive cells by FACS. It counts as cell-based. From the text: A CD69 Whole Blood Assay can be conducted on Formula I compounds to determine the ability of compounds to inhibit the production of CD69 by B lymphocytes in human whole blood activated by crosslinking surface IgM with goat F(ab′)2 anti-human IgM (Example 907). CD69 is a type II C-type lectin involved in lymphocyte migration and cytokine secretion. CD69 expression represents one of the earliest available indicators of leukocyte activation and its rapid induction occurs through transcriptional activation (Vazquez et al (2009) Jour. of Immunology Published Oct. 19, 2009, doi:10.4049/jimmunol.0900839). Concentration-dependent inhibition of antigen receptor stimulation by selective Btk inhibitors induces cell surface expression of the lymphocyte activation marker CD69 (Honigberg et al (2010) Proc. Natl. Acad. Sci. 107(29):13075-13080). Thus, CD69 inhibition by selective Btk inhibitors may be correlated with therapeutic efficacy of certain B-cell disorders.
Human blood is obtained from healthy volunteers, with the following restrictions: 1 week drug-free, non-smokers. Blood (approximately 20 mls to test 8 compounds) is collected by venipuncture into Vacutainer® (Becton, Dickinson and Co.) tubes with sodium heparin.
Solutions of Formula I and II compounds at 10 mM in DMSO are diluted 1:10 in 100% DMSO, then are diluted by three-fold serial dilutions in 100% DMSO for a ten point dose-response curve. The compounds are further diluted 1:10 in PBS and then an aliquot of 5.5 μl of each compound is added in duplicate to a 2 ml 96-well plate; 5.5 μl of 10% DMSO in PBS is added as control and no-stimulus wells. Human whole blood —HWB (100 μl) is added to each well. After mixing the plates are incubated at 37° C., 5% CO2, 100% humidity for 30 minutes. Goat F(ab′)2 anti-human IgM (10 μl of a 500 μg/ml solution, 50 μg/ml final) is added to each well (except the no-stimulus wells) with mixing and the plates are incubated for an additional 20 hours. At the end of the 20 hour incubation, samples are incubated with fluorescent labeled antibodies for 30 minutes, at 37° C., 5% CO2, 100% humidity. Include induced control, unstained and single stains for compensation adjustments and initial voltage settings. Samples are then lysed with PharM Lyse™ (BD Biosciences Pharmingen) according to the manufacturer's instructions. Samples are then transferred to a 96 well plate suitable to be run on the BD Biosciences HTS 96 well system on the LSRII machine. Data acquired and Mean Fluorescence Intensity values were obtained using BD Biosciences DIVA Software. Results are initially analyzed by FACS analysis software (Flow Jo). […] The inhibitory concentration (IC50, IC70, IC90) values are calculated by Prism version 5, using a nonlinear regression curve fit.
(In general: Flow cytometry measures light scatter and fluorescence of single cells or particles in a stream.)

As for `Cn1cc(-c2ccnc(-n3ncc4cc(C(C)(C)C)cc(F)c4c3=O)c2CO)cc(Nc2ccc(N3CC(O)C3)cn2)c1=O` [Compound 147, 6-tert-butyl-8-fluoro-2-[4-[5-[[5-(3-hydroxyazetidin-1-yl)-2-pyridyl]amino]-1-methyl-6-oxo-3-pyridyl]-3-(hydroxymethyl)-2-pyridyl]phthalazin-1-one], where the note is “Table 2”, the CD69 Hu Blood FACS (IC70) was found to be 33.3 nM.

Where the note is “Table 2”, `Cn1cc(-c2ccnc(-n3ncc4cc(C(C)(C)C)cc(F)c4c3=O)c2CO)cc(Nc2cc3n(n2)CCN(CC(F)(F)F)C3)c1=O` [Compound 134, 6-tert-butyl-8-fluoro-2-[3-(hydroxymethyl)-4-[1-methyl-6-oxo-5-[[5-(2,2,2-trifluoroethyl)-6,7-dihydro-4H-pyrazolo[1,5-a]pyrazin-2-yl]amino]-3-pyridyl]-2-pyridyl]phthalazin-1-one] yielded a CD69 Hu Blood FACS (IC70) of 21.6 nM.

Where the note is “Table 1”, `CC[C@H]1CN(C2COC2)CCN1c1ccc(Nc2cc(-c3cc(F)cc(-n4ncc5cc(C(C)(C)C)cc(F)c5c4=O)c3CO)cn(C)c2=O)nc1` [Compound 111, (S)-6-tert-butyl-2-(3-(5-(5-(2-ethyl-4-(oxetan-3-yl)piperazin-1-yl)pyridin-2-ylamino)-1-methyl-6-oxo-1,6-dihydropyridin-3-yl)-5-fluoro-2-(hydroxymethyl)phenyl)-8-fluorophthalazin-1(2H)-one] came in with a CD69 Hu Blood FACS (IC70) of 37.4 nM.

With `CC[C@H]1CN(C2COC2)CCN1c1ccc(Nc2cc(-c3ccnc(-n4ncc5cc(C(C)(C)C)cc(F)c5c4=O)c3CO)cn(C)c2=O)nc1` [Compound 112, (S)-6-tert-butyl-2-(4-(5-(5-(2-ethyl-4-(oxetan-3-yl)piperazin-1-yl)pyridin-2-ylamino)-1-methyl-6-oxo-1,6-dihydropyridin-3-yl)-3-(hydroxymethyl)pyridin-2-yl)-8-fluorophthalazin-1(2H)-one], where the note is “Table 1”, the CD69 Hu Blood FACS (IC70) worked out at 32.9 nM.

Take `C[C@H]1CN(C2COC2)CCN1c1ccc(Nc2cc(-c3ccnc(-n4ncc5cc(C(C)(C)C)cc(F)c5c4=O)c3CO)nn(C)c2=O)nc1` [Compound 117, 6-tert-butyl-8-fluoro-2-[3-(hydroxymethyl)-4-[1-methyl-5-[[5-[(2S)-2-methyl-4-(oxetan-3-yl)piperazin-1-yl]-2-pyridyl]amino]-6-oxo-pyridazin-3-yl]-2-pyridyl]phthalazin-1-one]: the CD69 Hu Blood FACS (IC70) (Table 2) is 16.5 nM.

On to `Cn1cc(-c2ccnc(-n3ncc4cc(C(C)(C)C)cc(F)c4c3=O)c2CO)cc(Nc2ccc(C(C)(C)C#N)cn2)c1=O` [Compound 156, 2-[6-[[5-[2-(6-tert-butyl-8-fluoro-1-oxo-phthalazin-2-yl)-3-(hydroxymethyl)-4-pyridyl]-1-methyl-2-oxo-3-pyridyl]amino]-3-pyridyl]-2-methyl-propanenitrile], for which, under “Table 2”, the CD69 Hu Blood FACS (IC70) was found to be 31 nM.

As to `CC1OCCn2nc(Nc3cc(-c4ccnc(-n5ncc6cc(C(C)(C)C)cc(F)c6c5=O)c4CO)cn(C)c3=O)cc21` (centres unmarked) [Compound 150, 6-tert-butyl-8-fluoro-2-[3-(hydroxymethyl)-4-[1-methyl-5-[(4-methyl-6,7-dihydro-4H-pyrazolo[5,1-c][1,4]oxazin-2-yl)amino]-6-oxo-3-pyridyl]-2-pyridyl]phthalazin-1-one], the CD69 Hu Blood FACS (IC70) (Table 2) was 42.8 nM.

Where the note is “Table 2”, `Cn1nc(Nc2cc(-c3ccnc(-n4ncc5cc(C(C)(C)C)cc(F)c5c4=O)c3CO)cn(C)c2=O)cc1C1CC1` [Compound 126, 6-tert-butyl-2-[4-[5-[(5-cyclopropyl-1-methyl-pyrazol-3-yl)amino]-1-methyl-6-oxo-3-pyridyl]-3-(hydroxymethyl)-2-pyridyl]-8-fluoro-phthalazin-1-one] gave a CD69 Hu Blood FACS (IC70) of 44.5 nM.

For the compound `C[C@@H]1COCCN1C(=O)c1ccc(Nc2cc(-c3ccnc(-n4ncc5cc(C(C)(C)C)cc(F)c5c4=O)c3CO)cn(C)c2=O)nc1` [Compound 132, 6-tert-butyl-8-fluoro-2-[3-(hydroxymethyl)-4-[1-methyl-5-[[5-[(3R)-3-methylmorpholine-4-carbonyl]-2-pyridyl]amino]-6-oxo-3-pyridyl]-2-pyridyl]phthalazin-1-one], the CD69 Hu Blood FACS (IC70) (Table 2) was determined as 14 nM.

As for `CC(=O)N1CCn2nc(Nc3cc(-c4ccnc(-n5ncc6cc(C(C)(C)C)cc(F)c6c5=O)c4CO)cn(C)c3=O)cc2C1` [Compound 124, 2-[4-[5-[(5-acetyl-6,7-dihydro-4H-pyrazolo[1,5-a]pyrazin-2-yl)amino]-1-methyl-6-oxo-3-pyridyl]-3-(hydroxymethyl)-2-pyridyl]-6-tert-butyl-8-fluoro-phthalazin-1-one], the CD69 Hu Blood FACS (IC70) (Table 2) turned out to be 41.5 nM.

Take `CCn1cc(Nc2nc(-c3ccnc(-n4ncc5cc(C(C)(C)C)cc(F)c5c4=O)c3CO)cn(C)c2=O)cn1` [Compound 123, 6-tert-butyl-2-[4-[6-[(1-ethylpyrazol-4-yl)amino]-4-methyl-5-oxo-pyrazin-2-yl]-3-(hydroxymethyl)-2-pyridyl]-8-fluoro-phthalazin-1-one]: the CD69 Hu Blood FACS (IC70) (Table 2) is 156 nM.

`Cn1cc(-c2ccnc(-n3ncc4cc(C(C)(C)C)cc(F)c4c3=O)c2CO)cc(Nc2cnccn2)c1=O` [Compound 160, 6-tert-butyl-8-fluoro-2-[3-(hydroxymethyl)-4-[1-methyl-6-oxo-5-(pyrazin-2-ylamino)-3-pyridyl]-2-pyridyl]phthalazin-1-one] yielded a CD69 Hu Blood FACS (IC70) (Table 2) of 116 nM.

Under “Table 2”, `Cc1cc(Nc2cc(-c3ccnc(-n4ncc5cc(C(C)(C)C)cc(F)c5c4=O)c3CO)cn(C)c2=O)no1` [Compound 129, 6-tert-butyl-8-fluoro-2-[3-(hydroxymethyl)-4-[1-methyl-5-[(5-methylisoxazol-3-yl)amino]-6-oxo-3-pyridyl]-2-pyridyl]phthalazin-1-one] displayed a CD69 Hu Blood FACS (IC70) of 48.8 nM.

Under “Table 2”, `Cn1nc(Nc2cc(-c3ccnc(-n4ncc5cc(C(C)(C)C)cc(F)c5c4=O)c3CO)cn(C)c2=O)cc1C(=O)N1CCCC1` [Compound 144, 6-tert-butyl-8-fluoro-2-[3-(hydroxymethyl)-4-[1-methyl-5-[[1-methyl-5-(pyrrolidine-1-carbonyl)pyrazol-3-yl]amino]-6-oxo-3-pyridyl]-2-pyridyl]phthalazin-1-one] showed a CD69 Hu Blood FACS (IC70) of 20.3 nM.

For `CCc1cc(Nc2cc(-c3ccnc(-n4ncc5cc(C(C)(C)C)cc(F)c5c4=O)c3CO)cn(C)c2=O)nn1C` [Compound 122, 6-tert-butyl-2-[4-[5-[(5-ethyl-1-methyl-pyrazol-3-yl)amino]-1-methyl-6-oxo-3-pyridyl]-3-(hydroxymethyl)-2-pyridyl]-8-fluoro-phthalazin-1-one], the CD69 Hu Blood FACS (IC70) (Table 2) amounted to 37.5 nM.

In turn, `Cn1cc(Nc2cc(-c3ccnc(-n4ncc5cc(C(C)(C)C)cc(F)c5c4=O)c3CO)cn(C)c2=O)nn1` [Compound 149, 6-tert-butyl-8-fluoro-2-[3-(hydroxymethyl)-4-[1-methyl-5-[(1-methyltriazol-4-yl)amino]-6-oxo-3-pyridyl]-2-pyridyl]phthalazin-1-one] came in with a CD69 Hu Blood FACS (IC70) (Table 2) of 93 nM.

`C[C@H]1CN(C2COC2)CCN1c1ccc(Nc2cc(-c3ccnc(-n4ncc5cc(C(C)(C)C)cc(F)c5c4=O)c3CO)c[nH]c2=O)nc1` [Compound 138, 6-tert-butyl-8-fluoro-2-[3-(hydroxymethyl)-4-[5-[[5-[(2S)-2-methyl-4-(oxetan-3-yl)piperazin-1-yl]-2-pyridyl]amino]-6-oxo-1H-pyridin-3-yl]-2-pyridyl]phthalazin-1-one]: where the note is “Table 2”, the CD69 Hu Blood FACS (IC70) came out at 12.4 nM.

The values are drawn from patent US8669251B2, “8-fluorophthalazin-1(2H)-one compounds” (Genentech, Inc., priority 2011, dated 2014).
